Test results published in ChEMBL document CHEMBL4334471, “Discovery of 1,8-disubstituted-[1,2,3]triazolo[4,5-c]quinoline derivatives as a new class of Hippo signaling pathway inhibitors” (Bioorg Med Chem Lett, 2019).

Assays:
[1] = molecular target: Serine/threonine-protein kinase 26 (Homo sapiens) (UniProt Q9P289); experiment: Inhibition of recombinant human MST4 (4 to 304 residues) assessed as residual activity at 10 uM using RLGRDKYKTLRQI as substrate measured after 40 mins in presence of [gamma33P]ATP by scintillation counting based radiometry assay relative to control
[2] = molecular target: Fibroblast growth factor receptor 1 (Homo sapiens) (UniProt P11362); experiment: Inhibition of recombinant human FGFR1 (456 to 765 residues) assessed as residual activity at 10 uM using KKKSPGEYVNIEF as substrate at 40 mins in presence of [gamma-33ATP] by scintillation counting based radiometry assay relative to control
[3] = molecular target: Calcium/calmodulin-dependent protein kinase type IV (Homo sapiens) (UniProt Q16566); experiment: Inhibition of recombinant full length human CaMK4 assessed as residual activity at 10 uM using […] incubated for 40 mins in presence of [gamma-33ATP] by scintillation counting based radiometry assay relative to control
[4] = molecular target: Serine/threonine-protein kinase pim-3 (Homo sapiens) (UniProt Q86V86); experiment: Inhibition of recombinant human Pim3 (2 to end residues) assessed as residual activity at 10 uM using RSRHSSYPAG as substrate incubated for 40 mins in presence of [gamma33P]ATP by scintillation counting based radiometry assay relative to control
[5] = molecular target: Serine/threonine-protein kinase Nek9 (Homo sapiens) (UniProt Q8TD19); experiment: Inhibition of recombinant human NEK9 (1 to 324 residues) assessed as residual activity at 10 uM using myelin basic protein as substrate measured after 40 mins in presence of [gamma33P]ATP by scintillation counting based radiometry assay relative to control
[6] = species on record: Homo sapiens; experiment: Inhibition of recombinant full length human PRAK R291E mutant assessed as residual activity at 10 uM using KKLRRTLSVA as substrate incubated for 40 mins in presence of [gamma33P]ATP by scintillation counting based radiometry assay relative to control
[7] = molecular target: Casein kinase I isoform delta (Homo sapiens) (UniProt P48730); experiment: Inhibition of recombinant human CK1delta (1 to 294 residues) assessed as residual activity at 10 uM using KRRRALS(p)VASLPGL as substrate incubated for 40 mins in presence of [gamma-33ATP] by scintillation counting based radiometry assay relative to control
[8] = molecular target: LIM domain kinase 1 (Homo sapiens) (UniProt P53667); experiment: Inhibition of recombinant human LIMK1 (285 to 638 residues) assessed as residual activity at 10 uM using cofilin as substrate after 40 mins in presence of [gamma-33ATP] by scintillation counting based radiometry assay relative to control
[9] = molecular target: Serine/threonine-protein kinase SIK2 (Homo sapiens) (UniProt Q9H0K1); experiment: Inhibition of recombinant human SIK2 (1 to 276 residues) assessed as residual activity at 10 uM using KKKVSRSGLYRSPSMPENLNRPR as substrate incubated for 40 mins in presence of [gamma33P]ATP by scintillation counting based radiometry assay relative to control
[10] = molecular target: Dual specificity mitogen-activated protein kinase kinase 2 (Homo sapiens) (UniProt P36507); experiment: Inhibition of recombinant human MEK2 assessed as residual activity at 10 uM using MBP as substrate incubated for 40 mins in presence of [gamma-33ATP by scintillation counting based radiometry assay relative to control
[11] = molecular target: CDK9/cyclin T1 (Homo sapiens) (UniProt O60563+P50750); experiment: Inhibition of recombinant full length human CDK9/cyclinT1 assessed as residual activity at 10 uM using KTFCGTPEYLAPE as substrate incubated for 40 mins in presence of [gamma-33ATP] by scintillation counting based radiometry assay relative to control; assay type: protein-complex assay
[12] = tested on: Discoidin domain-containing receptor 2 (Homo sapiens), Q16832 [UNDEFINED MUTATION]; experiment: Inhibition of recombinant human DDR2 S642A mutant (467 to end residues) assessed as residual activity at 10 uM using KKSRGDYMTMQIG as substrate at 40 mins in presence of [gamma-33ATP] by scintillation counting based radiometry assay relative to control
[13] = molecular target: Cyclin-dependent kinase 2/cyclin E1 (Homo sapiens) (UniProt P24864+P24941); experiment: Inhibition of recombinant full length human CDK2/CyclinE assessed as residual activity at 10 uM using Histone H1 as substrate incubated for 40 mins in presence of [gamma-33ATP] by scintillation counting based radiometry assay relative to control; assay type: protein-complex assay
[14] = molecular target: Eukaryotic translation initiation factor 2-alpha kinase 3 (Homo sapiens) (UniProt Q9NZJ5); experiment: Inhibition of human PEK (536 to end residues) assessed as residual activity at 10 uM using RSRSRSRSRSRSRSR as substrate measured after 40 mins in presence of [gamma33P]ATP by scintillation counting based radiometry assay relative to control
[15] = molecular target: Rhodopsin kinase GRK7 (Homo sapiens) (UniProt Q8WTQ7); experiment: Inhibition of recombinant full length human GRK7 assessed as residual activity at 10 uM using casein as substrate at 40 mins in presence of [gamma-33ATP] by scintillation counting based radiometry assay relative to control
[16] = molecular target: Tyrosine-protein kinase receptor TYRO3 (Homo sapiens) (UniProt Q06418); experiment: Inhibition of recombinant human RSE (451 to end residues) assessed as residual activity at 10 uM using KVEKIGEGTYGVVYK as substrate incubated for 40 mins in presence of [gamma33P]ATP by scintillation counting based radiometry assay relative to control
[17] = molecular target: [Pyruvate dehydrogenase (acetyl-transferring)] kinase isozyme 2, mitochondrial (Homo sapiens) (UniProt Q15119); experiment: Inhibition of human PDHK2 assessed as residual activity at 10 uM by scintillation counting based radiometry assay relative to control
[18] = molecular target: CDK17/Cyclin-Y (Homo sapiens) (UniProt Q00537+Q8ND76); experiment: Inhibition of recombinant full length human CDK17/cyclinY assessed as residual activity at 10 uM using PKSPKARKKL as substrate incubated for 40 mins in presence of [gamma-33ATP] by scintillation counting based radiometry assay relative to control; assay type: protein-complex assay
[19] = species on record: Mus musculus; experiment: Inhibition of recombinant full-length mouse PI3K p110/p85 E542K mutant assessed as residual activity at 10 uM using phosphatidylinositol-4, 5-bisphosphate as substrate incubated for 40 mins in presence of [gamma33P]ATP by scintillation counting based radiometry assay relative to control
[20] = molecular target: ALK tyrosine kinase receptor (Homo sapiens) (UniProt Q9UM73); experiment: Inhibition of human ALK (1058 to end residues) assessed as residual activity at 10 uM using KKKSPGEYVNIEFG as substrate incubated for 40 mins in presence of [gamma-33ATP] by scintillation counting based radiometry assay relative to control
[21] = molecular target: Serine/threonine-protein kinase pim-2 (Homo sapiens) (UniProt Q9P1W9); experiment: Inhibition of recombinant human Pim2 (2 to end residues) assessed as residual activity at 10 uM using RSRHSSYPAG as substrate incubated for 40 mins in presence of [gamma33P]ATP by scintillation counting based radiometry assay relative to control
Chain of Serine/threonine-protein kinase pim-2 (Homo sapiens) (Q9P1W9 whole entry, looked up): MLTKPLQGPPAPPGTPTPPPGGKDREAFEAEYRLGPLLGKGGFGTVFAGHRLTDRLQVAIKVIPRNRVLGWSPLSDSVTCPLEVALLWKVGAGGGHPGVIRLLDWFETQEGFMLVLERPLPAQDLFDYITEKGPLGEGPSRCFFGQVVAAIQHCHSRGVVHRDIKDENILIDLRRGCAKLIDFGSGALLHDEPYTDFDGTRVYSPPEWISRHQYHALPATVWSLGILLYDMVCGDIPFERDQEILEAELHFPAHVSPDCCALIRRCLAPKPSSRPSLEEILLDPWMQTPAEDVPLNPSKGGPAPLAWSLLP

Chain of Serine/threonine-protein kinase Nek9 (Homo sapiens) (Q8TD19 whole entry, the tested form may be a part): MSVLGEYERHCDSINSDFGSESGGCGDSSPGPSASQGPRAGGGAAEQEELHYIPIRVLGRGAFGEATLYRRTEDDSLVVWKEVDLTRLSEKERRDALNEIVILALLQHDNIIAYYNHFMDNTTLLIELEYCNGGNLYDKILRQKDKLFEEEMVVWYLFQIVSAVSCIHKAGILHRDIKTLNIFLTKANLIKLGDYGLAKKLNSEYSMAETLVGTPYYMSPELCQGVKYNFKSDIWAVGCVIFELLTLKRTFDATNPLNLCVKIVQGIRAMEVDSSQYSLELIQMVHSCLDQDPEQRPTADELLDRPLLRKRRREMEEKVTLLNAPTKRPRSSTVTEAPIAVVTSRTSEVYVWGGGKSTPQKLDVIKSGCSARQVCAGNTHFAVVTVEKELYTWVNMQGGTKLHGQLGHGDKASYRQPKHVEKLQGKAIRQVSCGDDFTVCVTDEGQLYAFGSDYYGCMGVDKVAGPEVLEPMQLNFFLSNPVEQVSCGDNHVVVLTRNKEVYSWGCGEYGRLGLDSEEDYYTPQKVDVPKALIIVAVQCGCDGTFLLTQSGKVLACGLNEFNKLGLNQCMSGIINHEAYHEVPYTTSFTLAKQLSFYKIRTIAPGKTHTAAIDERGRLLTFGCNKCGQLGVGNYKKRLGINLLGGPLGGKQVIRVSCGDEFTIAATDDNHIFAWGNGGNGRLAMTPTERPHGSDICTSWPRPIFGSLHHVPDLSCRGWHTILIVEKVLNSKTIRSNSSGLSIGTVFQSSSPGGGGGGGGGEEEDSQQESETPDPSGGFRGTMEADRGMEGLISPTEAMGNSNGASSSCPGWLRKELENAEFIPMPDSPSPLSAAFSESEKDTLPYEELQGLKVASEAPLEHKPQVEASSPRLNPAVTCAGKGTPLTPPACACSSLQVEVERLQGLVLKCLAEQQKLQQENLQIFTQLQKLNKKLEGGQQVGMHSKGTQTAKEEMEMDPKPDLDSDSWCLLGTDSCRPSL
Chain of Rhodopsin kinase GRK7 (Homo sapiens) (Q8WTQ7 whole entry): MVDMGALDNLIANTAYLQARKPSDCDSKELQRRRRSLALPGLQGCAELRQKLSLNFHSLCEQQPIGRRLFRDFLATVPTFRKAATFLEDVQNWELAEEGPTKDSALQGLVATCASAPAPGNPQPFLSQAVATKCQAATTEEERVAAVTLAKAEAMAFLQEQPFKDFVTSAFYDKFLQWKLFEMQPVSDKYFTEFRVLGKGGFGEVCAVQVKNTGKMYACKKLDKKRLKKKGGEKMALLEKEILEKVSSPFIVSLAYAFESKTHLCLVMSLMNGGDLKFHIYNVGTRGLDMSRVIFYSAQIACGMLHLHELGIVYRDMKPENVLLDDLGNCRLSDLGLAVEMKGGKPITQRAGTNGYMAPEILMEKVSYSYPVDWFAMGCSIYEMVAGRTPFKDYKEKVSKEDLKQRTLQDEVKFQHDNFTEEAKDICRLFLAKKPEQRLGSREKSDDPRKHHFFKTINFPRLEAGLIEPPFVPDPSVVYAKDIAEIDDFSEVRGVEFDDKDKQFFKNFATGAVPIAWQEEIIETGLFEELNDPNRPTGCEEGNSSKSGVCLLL
Chain of ALK tyrosine kinase receptor (Homo sapiens) (Q9UM73 19-1620 limits assumed): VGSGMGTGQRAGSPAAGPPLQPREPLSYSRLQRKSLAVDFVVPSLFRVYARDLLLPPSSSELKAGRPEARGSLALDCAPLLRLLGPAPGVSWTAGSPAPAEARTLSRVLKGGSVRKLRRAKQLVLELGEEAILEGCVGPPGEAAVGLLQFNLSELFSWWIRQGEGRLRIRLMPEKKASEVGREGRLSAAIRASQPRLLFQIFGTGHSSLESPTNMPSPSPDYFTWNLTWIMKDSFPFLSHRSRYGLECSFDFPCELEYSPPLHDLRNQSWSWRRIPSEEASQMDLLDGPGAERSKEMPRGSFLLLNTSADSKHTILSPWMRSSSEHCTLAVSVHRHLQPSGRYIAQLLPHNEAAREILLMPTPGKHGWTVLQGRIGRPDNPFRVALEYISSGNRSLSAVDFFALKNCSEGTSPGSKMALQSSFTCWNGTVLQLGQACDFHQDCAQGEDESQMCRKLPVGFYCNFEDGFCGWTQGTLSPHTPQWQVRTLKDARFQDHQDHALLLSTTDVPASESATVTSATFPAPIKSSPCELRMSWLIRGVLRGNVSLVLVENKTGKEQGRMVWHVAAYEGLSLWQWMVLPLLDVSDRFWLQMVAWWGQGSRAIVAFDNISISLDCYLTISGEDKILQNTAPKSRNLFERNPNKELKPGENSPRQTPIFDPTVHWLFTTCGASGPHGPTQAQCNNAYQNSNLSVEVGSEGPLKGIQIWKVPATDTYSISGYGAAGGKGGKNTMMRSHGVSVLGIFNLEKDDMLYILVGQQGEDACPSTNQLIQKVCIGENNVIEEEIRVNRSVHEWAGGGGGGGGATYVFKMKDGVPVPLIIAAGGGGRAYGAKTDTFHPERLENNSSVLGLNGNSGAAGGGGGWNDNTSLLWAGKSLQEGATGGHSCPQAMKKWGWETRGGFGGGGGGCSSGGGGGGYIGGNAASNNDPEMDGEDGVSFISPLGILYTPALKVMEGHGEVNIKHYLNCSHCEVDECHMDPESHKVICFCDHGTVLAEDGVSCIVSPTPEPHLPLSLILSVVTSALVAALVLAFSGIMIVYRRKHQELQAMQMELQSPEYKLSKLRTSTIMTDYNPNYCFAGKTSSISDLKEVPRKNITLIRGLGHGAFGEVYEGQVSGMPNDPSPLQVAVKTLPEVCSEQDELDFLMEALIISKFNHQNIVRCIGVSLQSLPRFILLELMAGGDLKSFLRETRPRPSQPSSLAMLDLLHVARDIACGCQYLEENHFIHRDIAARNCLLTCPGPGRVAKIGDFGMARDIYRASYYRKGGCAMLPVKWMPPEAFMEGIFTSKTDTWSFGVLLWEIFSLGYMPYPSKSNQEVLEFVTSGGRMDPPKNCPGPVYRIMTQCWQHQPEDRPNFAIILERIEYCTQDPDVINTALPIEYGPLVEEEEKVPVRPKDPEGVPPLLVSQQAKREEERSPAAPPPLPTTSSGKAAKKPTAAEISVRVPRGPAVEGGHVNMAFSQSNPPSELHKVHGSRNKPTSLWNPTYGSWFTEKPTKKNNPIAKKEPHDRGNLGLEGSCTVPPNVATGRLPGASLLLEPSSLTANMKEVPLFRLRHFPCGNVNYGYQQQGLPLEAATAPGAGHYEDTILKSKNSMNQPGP
Chain of Dual specificity mitogen-activated protein kinase kinase 2 (Homo sapiens) (P36507 whole entry): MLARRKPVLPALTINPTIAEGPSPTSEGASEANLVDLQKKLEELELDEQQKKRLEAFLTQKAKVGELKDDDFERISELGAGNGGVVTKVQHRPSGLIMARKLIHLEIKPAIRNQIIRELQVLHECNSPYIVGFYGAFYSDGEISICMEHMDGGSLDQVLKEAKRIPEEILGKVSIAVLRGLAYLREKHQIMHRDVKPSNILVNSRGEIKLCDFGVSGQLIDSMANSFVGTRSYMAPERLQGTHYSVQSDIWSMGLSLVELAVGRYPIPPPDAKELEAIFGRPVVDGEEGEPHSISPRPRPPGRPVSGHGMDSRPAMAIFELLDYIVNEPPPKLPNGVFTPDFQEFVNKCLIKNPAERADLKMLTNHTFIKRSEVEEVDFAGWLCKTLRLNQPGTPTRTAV
Chain of Serine/threonine-protein kinase SIK2 (Homo sapiens) (Q9H0K1 whole entry, looked up, the tested form may be a part): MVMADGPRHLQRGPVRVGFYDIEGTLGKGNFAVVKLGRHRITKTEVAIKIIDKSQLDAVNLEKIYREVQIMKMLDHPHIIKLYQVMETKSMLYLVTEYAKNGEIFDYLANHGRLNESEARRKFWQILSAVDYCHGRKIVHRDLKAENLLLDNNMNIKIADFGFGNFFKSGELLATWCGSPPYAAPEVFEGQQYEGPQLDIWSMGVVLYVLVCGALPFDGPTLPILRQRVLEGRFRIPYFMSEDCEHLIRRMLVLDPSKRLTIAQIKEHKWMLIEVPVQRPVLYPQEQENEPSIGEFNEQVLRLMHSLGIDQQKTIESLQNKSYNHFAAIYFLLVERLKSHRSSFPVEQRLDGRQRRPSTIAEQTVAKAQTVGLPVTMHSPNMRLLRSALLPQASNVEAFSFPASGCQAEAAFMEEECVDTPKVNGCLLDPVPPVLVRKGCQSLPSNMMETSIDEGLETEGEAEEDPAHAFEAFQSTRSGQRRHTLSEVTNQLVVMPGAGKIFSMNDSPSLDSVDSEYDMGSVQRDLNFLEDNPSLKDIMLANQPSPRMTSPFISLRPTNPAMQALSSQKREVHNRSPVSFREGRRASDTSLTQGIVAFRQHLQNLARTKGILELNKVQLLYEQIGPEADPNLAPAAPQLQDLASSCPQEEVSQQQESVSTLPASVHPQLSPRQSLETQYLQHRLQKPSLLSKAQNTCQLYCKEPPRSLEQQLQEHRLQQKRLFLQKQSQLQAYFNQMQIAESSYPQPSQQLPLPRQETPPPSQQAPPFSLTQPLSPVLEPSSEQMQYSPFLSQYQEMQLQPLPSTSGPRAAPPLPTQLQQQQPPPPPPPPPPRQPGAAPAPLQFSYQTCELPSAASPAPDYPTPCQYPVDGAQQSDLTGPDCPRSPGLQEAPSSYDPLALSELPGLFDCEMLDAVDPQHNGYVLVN

## C[C@@H](c1ccccc1)n1nnc2cnc3ccc(-c4cnc5[nH]ccc5c4)cc3c21
[1]
  Activity: 69%
[2]
  Activity: 34%
[3]
  Activity: 39%
[4]
  Activity: 83%
[5]
  Activity: 97%
[6]
  Activity: 87%
[7]
  Activity: 23%
[8]
  Activity: 95%
[9]
  Activity: 7%
[10]
  Activity: 92%
[11]
  Activity: 80%
[12]
  Activity: 35%
[13]
  Activity: 72%
[14]
  Activity: 94%
[15]
  Activity: 90%
[16]
  Activity: 89%
[17]
  Activity: 86%
[18]
  Activity: 85%
[19]
  Activity: -1%
[20]
  Activity: 28%
[21]
  Activity: 80%
